According to patent US20250003951A1, “METHOD AND COMPOSITION” (Oxford University Innovation Limited, priority 2021, published 2025):

Legend:
[1] = tested on: peptide-responsive T cells from post-transplant blood; experiment: Flow cytometry immunophenotyping of peptide-responsive T cells (IFNγ, TNFα, CD107a) after 12-day peptide culture and restimulation; assay type: cell-based, human
Text: (§1) FIG. 3: Characterisation of GvL T cell responses. a) IFNγ ELISpot results following stimulation of post-transplant PB with GvL peptide+/−antibodies blocking HLA pan-class I (W6/32), pan-class II (Tü39), HLA-DR (L243), -DQ (Tü169) and -DP (B7/21). Negative control without peptide (DMSO). b) Flow cytometry with intracellular cytokine staining showing % T cells positive for IFNγ, TNFα, CD107a after treatment with peptide vs no treatment. […] The generic workflow established in Example 1 was used to identify the antigenic basis of GvL in further patients. In brief, mismatched peptides identified by in silico prediction and mass spectrometry for each patient were screened for their ability to activate donor-derived T cells taken from the patient post-allo-SCT, using IFNγ ELISpot assays. HLA restriction was investigated using IFNγ ELISpots with HLA-blocking antibodies. The nature and frequency of peptide-responsive T cells (i.e. cells producing cytokines (IFNγ, TNFα) and expression of the degranulation marker (CD107a) following peptide contact) were assessed by culturing post-transplant blood with peptide for 12 days and then stimulating with the peptide. Responses were assessed by flow cytometry.

[2] = tested on: donor-derived T cells taken from the patient post-allo-SCT; experiment: IFNγ ELISpot with HLA-blocking antibodies (HLA restriction); assay type: cell-based, human; settings: for Restricting HLA allele: candidate alleles separated by /
Text: as §1

[3] = Table 3, post-transplant blood cultured with peptide 12 days, then restimulated
[4] = Table 3, IFNγ ELISpots with HLA-blocking antibodies

Sequence | CD4/CD8 responses [1, 3] | Frequency of response (% IFN* cells amongst CD4+ or CD8+ by FACS) [1, 3] | CD4/CD8 responses ([1]; Table 4) | Freq. of response (% IFNγ+ cells amongst CD4+ or CD8+ by FACS) ([1]; Table 4) | HLA restriction [2, 4] | Restricting HLA allele ([2]; Table 3) | HLA restriction ([2]; Table 4)
AGTGLASIIAATMARTVYCT (listed as Homo sapiens) [OX747-191] | Likely CD4 | Not detected | Likely CD4 | Not detected | HLA-DR | DRB1*04:04:01/DRB1*13:02:01/DRB3*03:01/DRB4*01:03 | HLA-DR
APISLSSFFNVSTLEREVTD (listed as Homo sapiens) [OX747-185] | Likely CD4 | Not detected | Likely CD4 | Not detected | HLA-DR | DRB1*04:04:01/DRB1*13:02:01/DRB3*03:01/DRB4*01:03 | HLA-DR
GQKSPRFRRVSCFLRLGRST (listed as Homo sapiens) [OX802-321] | CD4 | – | CD4 | 5.47% | – | – | –
ITVQTVYVQHLITFLDRPIQ (listed as Homo sapiens) [OX628-80] | CD4 | – | CD4 | 2.36% | HLA-DR | DRB1*03:01/DRB1*15:01/DRB3*01:01/04/DRB5*01:01:01 | HLA-DR
KALLKRLLKGMQKKRPSDVQ (listed as Homo sapiens) [OX993-414] | Likely CD4 | – | CD4 | 0.4% | HLA-DR | DRB1*01:01/DRB1*11:01/DRB3*02:02/28/29N | HLA-DR
KVVGARGVGKSAFLQAFLGR (listed as Homo sapiens) [OX813-102] | Indeterminate | Not detected | – | Not detected | Indeterminate | – | –
LELGAGTGLASIIAATMART (listed as Homo sapiens) [OX747-190] | Likely CD4 | Not detected | Likely CD4 | Not detected | HLA-DR | DRB1*04:04:01/DRB1*13:02:01/DRB3*03:01/DRB4*01:03 | HLA-DR
LGLIFALTLNRHKYPLNLYL (listed as Homo sapiens) [OX747-158] | CD4 | – | CD4 | 0.45% | – | – | –
LGSLGLIFALTLNRHKYPLN (listed as Homo sapiens) [OX747-157] | CD4 | – | CD4 | 0.325% | – | – | –
LHRDKALLKRLLKGMQKKRP (listed as Homo sapiens) [OX993-413] | Likely CD4 | – | CD4 | 0.4% | HLA-DR | DRB1*01:01/DRB1*11:01/DRB3*02:02/28/29N | HLA-DR
MNYVSKRLPFAARLNTPMGP (listed as Homo sapiens) [OX1098-614] | Indeterminate | Not detected | Likely CD4 | Not detected | Indeterminate | – | HLA-DP
NPLSPYLNVDPRYLVQDT (listed as Homo sapiens) [OX289-180] | CD4 | – | CD4 | 0.98% | Likely HLA-DR | DRB1*03:01/DRB1*07:01:01/DRB3*02:02/05/11/13/14/17-23/DRB4*01:01-05/07 | HLA-DR
PGLISMFSSSQELGAALAQL (listed as Homo sapiens) [OX628-564] | Indeterminate | Not detected | – | Not detected | – | – | –
PLYRQRYQFIKNLVDQHEPK (listed as Homo sapiens) [OX289-074] | CD4 | – | CD4 | 0.24% | – | – | –
PPLYRQRYQFIKNLVDQHEP (listed as Homo sapiens) [OX289-073] | CD4 | – | CD4 | 0.36% | – | – | –
QTVYVQHLITFLDRPIQMCC (listed as Homo sapiens) [OX628-81] | CD4 | – | CD4 | 1.12% | HLA-DR | DRB1*03:01/DRB1*15:01/DRB3*01:01/04/DRB5*01:01:01 | HLA-DR
RFRRVSCFLRLGRSTLLELE (listed as Homo sapiens) [OX802-322] | CD4 | – | CD4 | 3.23% | – | – | –
TDRALQNKSISAFLVPMPTP (listed as Homo sapiens) [OX289-205] | CD4 | – | CD4 | 0.89% | – | – | –
TQRSVLLCKVVGARGVGKSA (listed as Homo sapiens) [OX813-101] | Indeterminate | Not detected | – | Not detected | Indeterminate | – | –
VPREYVRALNATKLERVFAK (listed as Homo sapiens) [OX628-305] | Indeterminate | Not detected | – | Not detected | Indeterminate | – | –
VSRPELLRESISAFLVPMPT (listed as Homo sapiens) [OX289-075] | CD4 | – | CD4 | 1.33% | – | – | –
